“And” between values parts separate entries of the source, which are not always exact repeats. Equal values may be shown once. Inconclusive results and toxic doses are left out. Cut-off read from the data, not from the text of the source: active = T/C of 150% or more; inactive = T/C below 125%.
Tested on: L1210 leukemia ip in BDF1 mice, survival T/C
Test: NCI In Vivo Anticancer Drug Screen. Data for tumor model L1210 Leukemia (intraperitoneal) in B6D2F1 (BDF1) mice
Settings: endpoint: mean survival time, higher = longer survival
How it was run: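 Antitumor effect is assessed in tumor-bearing animals. Survival in the compound arm is compared with a vehicle-dosed control arm and expressed as their quotient.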

[1] = dose: 100.0 mg/kg/injection, schedule: Q04DX002 (ip), vehicle: saline
[2] = dose: 200.0 mg/kg/injection, schedule: Q04DX002 (ip), vehicle: saline
[3] = dose: 400.0 mg/kg/injection, schedule: Q04DX002 (ip), vehicle: saline
[4] = dose: 100.0 mg/kg/injection, schedule: Q01DX009 (ip), vehicle: Klucel (hydroxypropylcellulose) (HPC)
[5] = dose: 100.0 mg/kg/injection, schedule: Q04DX003 (ip), vehicle: Klucel (hydroxypropylcellulose) (HPC)
[6] = dose: 200.0 mg/kg/injection, schedule: Q01DX009 (ip), vehicle: Klucel (hydroxypropylcellulose) (HPC)
[7] = dose: 200.0 mg/kg/injection, schedule: Q04DX003 (ip), vehicle: Klucel (hydroxypropylcellulose) (HPC)
[8] = dose: 400.0 mg/kg/injection, schedule: Q01DX009 (ip), vehicle: Klucel (hydroxypropylcellulose) (HPC)
[9] = dose: 400.0 mg/kg/injection, schedule: Q04DX003 (ip), vehicle: Klucel (hydroxypropylcellulose) (HPC)
[10] = dose: 50.0 mg/kg/injection, schedule: Q01DX001 (ip), vehicle: saline

Measured: T/C

O=[N+]([O-])/C(N=Nc1ccc2ccccc2c1)=N\Nc1ccc2ccccc2c1
inactive: dose: 10.0 mg/kg/injection, schedule: Q01DX001 (ip), vehicle: acetone 98 % of control | dose: 20.0 mg/kg/injection, schedule: Q01DX001 (ip), vehicle: acetone 94 % of control | dose: 40.0 mg/kg/injection, schedule: Q01DX001 (ip), vehicle: acetone 88 % of control | dose: 75.0 mg/kg/injection, schedule: Q01DX001 (ip), vehicle: acetone 89 % of control | dose: 300.0 mg/kg/injection, schedule: Q01DX001 (ip), vehicle: acetone 89 % of control

CSCCNC(=O)CS(=O)(=O)c1ccc(C)cc1
inactive: dose: 100.0 mg/kg/injection, schedule: Q04DX003 (ip), vehicle: saline with Tween-80 100 % of control | dose: 200.0 mg/kg/injection, schedule: Q04DX003 (ip), vehicle: saline with Tween-80 100 % of control | dose: 400.0 mg/kg/injection, schedule: Q04DX003 (ip), vehicle: saline with Tween-80 92 % of control

NC(=O)C(N)CO (stereo not drawn)
inactive: [1] 96 % of control | [2] 104 % of control | [3] 111 % of control

CC(C)(c1cc(Br)c(O)c(Br)c1)c1cc(Br)c(O)c(Br)c1
inactive: [4] 93 % of control | [5] 100 % of control | [6] 94 % of control | [7] 92 % of control | [8] 91 % of control | [9] 103 % of control

COC(=O)c1ccc(OC(=O)Nc2ccccc2F)cc1
inactive: dose: 25.0 mg/kg/injection, schedule: Q01DX009 (ip), vehicle: saline with Tween-80 106 % of control | dose: 50.0 mg/kg/injection, schedule: Q01DX009 (ip), vehicle: saline with Tween-80 119 % of control | dose: 100.0 mg/kg/injection, schedule: Q01DX009 (ip), vehicle: saline with Tween-80 95 % of control and 108 % of control

O=[N+]([O-])c1ccc(C=Nc2ccccc2S)s1
inactive: [5] 100 % of control | [7] 96 % of control | [9] 94 % of control

ClCCN(CCCl)c1ccc(Nc2nc(Nc3ccc(N(CCCl)CCCl)cc3)c3ccccc3n2)cc1
inactive: dose: 25.0 mg/kg/injection, schedule: Q04DX002 (ip), vehicle: saline 105 % of control | dose: 50.0 mg/kg/injection, schedule: Q04DX002 (ip), vehicle: saline 113 % of control | [1] 111 % of control | [2] 106 % of control and 109 % of control | [3] 95 % of control

O=CC(=O)c1ccc(O)cc1
inactive: dose: 50.0 mg/kg/injection, schedule: Q01DX009 (ip), vehicle: saline sonified 114 % of control | dose: 50.0 mg/kg/injection, schedule: Q04DX003 (ip), vehicle: saline 111 % of control | dose: 66.0 mg/kg/injection, schedule: Q04DX003 (ip), vehicle: saline 97 % of control | dose: 100.0 mg/kg/injection, schedule: Q01DX009 (ip), vehicle: saline sonified 119 % of control | dose: 100.0 mg/kg/injection, schedule: Q04DX003 (ip), vehicle: saline 103 % of control and 111 % of control | dose: 150.0 mg/kg/injection, schedule: Q04DX003 (ip), vehicle: saline 103 % of control | dose: 200.0 mg/kg/injection, schedule: Q04DX003 (ip), vehicle: saline 117 % of control

O=C(NC(=S)Nc1cccc(Cl)c1)c1cccc(Br)c1
inactive: dose: 100.0 mg/kg/injection, schedule: Q01DX001 (ip), vehicle: Klucel (hydroxypropylcellulose) (HPC) 86 % of control | [4] 98 % of control and 90 % of control | dose: 100.0 mg/kg/injection, schedule: Q04DX002 (ip), vehicle: Klucel (hydroxypropylcellulose) (HPC) 91 % of control | [5] 108 % of control | dose: 200.0 mg/kg/injection, schedule: Q01DX001 (ip), vehicle: Klucel (hydroxypropylcellulose) (HPC) 117 % of control | [6] 98 % of control and 90 % of control | dose: 200.0 mg/kg/injection, schedule: Q04DX002 (ip), vehicle: Klucel (hydroxypropylcellulose) (HPC) 93 % of control and 91 % of control | [7] 107 % of control | dose: 400.0 mg/kg/injection, schedule: Q01DX001 (ip), vehicle: Klucel (hydroxypropylcellulose) (HPC) 86 % of control | [8] 87 % of control and 91 % of control | dose: 400.0 mg/kg/injection, schedule: Q04DX002 (ip), vehicle: Klucel (hydroxypropylcellulose) (HPC) 93 % of control and 91 % of control | [9] 96 % of control

O=S(=O)(NC(=S)c1ccccc1)c1ccccc1
inactive: dose: 50.0 mg/kg/injection, schedule: Q01DX009 (ip), vehicle: saline 108 % of control | dose: 100.0 mg/kg/injection, schedule: Q01DX009 (ip), vehicle: saline 97 % of control

O=S(=O)(O)C(Nc1ccccn1)c1ccccc1 (stereo not drawn)
inactive: dose: 100.0 mg/kg/injection, schedule: Q01DX001 (ip), vehicle: saline with Tween-80 104 % of control

O=C1C(=O)c2ccccc2C(O)=C1CC=C(Cl)Cl
inactive: dose: 6.2 mg/kg/injection, schedule: Q01DX009 (ip), vehicle: water 94 % of control | dose: 6.25 mg/kg/injection, schedule: Q01DX001 (ip), vehicle: saline 97 % of control | dose: 12.5 mg/kg/injection, schedule: Q01DX001 (ip), vehicle: saline 106 % of control | dose: 12.5 mg/kg/injection, schedule: Q01DX001 (oral), vehicle: saline 97 % of control | dose: 12.5 mg/kg/injection, schedule: Q01DX009 (ip), vehicle: water 100 % of control and 96 % of control | dose: 12.5 mg/kg/injection, schedule: Q03HX024 (ip), vehicle: water 89 % of control | dose: 12.5 mg/kg/injection, schedule: Q04DX003 (ip), vehicle: water 94 % of control | dose: 12.5 mg/kg/injection, schedule: Q08DX002 (ip), vehicle: water 98 % of control | dose: 25.0 mg/kg/injection, schedule: Q01DX001 (ip), vehicle: saline 104 % of control | dose: 25.0 mg/kg/injection, schedule: Q01DX001 (oral), vehicle: saline 104 % of control | dose: 25.0 mg/kg/injection, schedule: Q01DX009 (ip), vehicle: water 102 % of control and 96 % of control | dose: 25.0 mg/kg/injection, schedule: Q03HX016 (ip), vehicle: water 89 % of control | dose: 25.0 mg/kg/injection, schedule: Q03HX024 (ip), vehicle: water 90 % of control | dose: 25.0 mg/kg/injection, schedule: Q04DX003 (ip), vehicle: water 95 % of control | dose: 25.0 mg/kg/injection, schedule: Q08DX002 (ip), vehicle: water 95 % of control | dose: 25.0 mg/kg/injection, schedule: Q## X008 (ip), vehicle: water 91 % of control | [10] 106 % of control | dose: 50.0 mg/kg/injection, schedule: Q01DX001 (ip), vehicle: water 102 % of control | dose: 50.0 mg/kg/injection, schedule: Q01DX001 (oral), vehicle: saline 98 % of control | dose: 50.0 mg/kg/injection, schedule: Q01DX009 (ip), vehicle: water 113 % of control and 100 % of control | dose: 50.0 mg/kg/injection, schedule: Q03HX016 (ip), vehicle: water 91 % of control | dose: 50.0 mg/kg/injection, schedule: Q03HX024 (ip), vehicle: water 96 % of control | dose: 50.0 mg/kg/injection, schedule: Q04DX003 (ip), vehicle: water 97 % of control | dose: 50.0 mg/kg/injection, schedule: Q08DX002 (ip), vehicle: water 92 % of control | dose: 50.0 mg/kg/injection, schedule: Q## X008 (ip), vehicle: water 88 % of control | dose: 75.0 mg/kg/injection, schedule: Q03HX024 (ip), vehicle: water 90 % of control | dose: 75.0 mg/kg/injection, schedule: Q04DX003 (ip), vehicle: water 95 % of control | dose: 100.0 mg/kg/injection, schedule: Q01DX001 (oral), vehicle: saline 97 % of control and 106 % of control | dose: 100.0 mg/kg/injection, schedule: Q03HX016 (ip), vehicle: water 88 % of control | dose: 100.0 mg/kg/injection, schedule: Q03HX024 (ip), vehicle: water 92 % of control | dose: 100.0 mg/kg/injection, schedule: Q08DX002 (ip), vehicle: water 92 % of control | dose: 100.0 mg/kg/injection, schedule: Q## X008 (ip), vehicle: water 92 % of control | dose: 200.0 mg/kg/injection, schedule: Q03HX016 (ip), vehicle: water 90 % of control | dose: 200.0 mg/kg/injection, schedule: Q## X008 (ip), vehicle: water 94 % of control

COC(OC)c1cccc([N+](=O)[O-])c1
inactive: [10] 111 % of control | dose: 100.0 mg/kg/injection, schedule: Q01DX001 (ip), vehicle: saline 107 % of control | dose: 200.0 mg/kg/injection, schedule: Q01DX001 (ip), vehicle: saline 102 % of control | dose: 400.0 mg/kg/injection, schedule: Q01DX001 (ip), vehicle: saline 100 % of control

Reference: PubChem BioAssay AID248 (DTP/NCI, 2004)
